Measurements published in US20230373937A1, “INHIBITORS OF SPINSTER HOMOLOG 2 (SPNS2) FOR USE IN THERAPY” (University of Virginia Patent Foundation, priority 2020, published 2023).
Where a name gives a salt, the structure may show the parent alone.

Molecular target: T1, SPNS2 (Mus musculus, UniProt Q91VM4)
T1 construct: expressed in transfected cells; host or cells: HeLa or U937 cells
T1 sequence (Q91VM4 1-549): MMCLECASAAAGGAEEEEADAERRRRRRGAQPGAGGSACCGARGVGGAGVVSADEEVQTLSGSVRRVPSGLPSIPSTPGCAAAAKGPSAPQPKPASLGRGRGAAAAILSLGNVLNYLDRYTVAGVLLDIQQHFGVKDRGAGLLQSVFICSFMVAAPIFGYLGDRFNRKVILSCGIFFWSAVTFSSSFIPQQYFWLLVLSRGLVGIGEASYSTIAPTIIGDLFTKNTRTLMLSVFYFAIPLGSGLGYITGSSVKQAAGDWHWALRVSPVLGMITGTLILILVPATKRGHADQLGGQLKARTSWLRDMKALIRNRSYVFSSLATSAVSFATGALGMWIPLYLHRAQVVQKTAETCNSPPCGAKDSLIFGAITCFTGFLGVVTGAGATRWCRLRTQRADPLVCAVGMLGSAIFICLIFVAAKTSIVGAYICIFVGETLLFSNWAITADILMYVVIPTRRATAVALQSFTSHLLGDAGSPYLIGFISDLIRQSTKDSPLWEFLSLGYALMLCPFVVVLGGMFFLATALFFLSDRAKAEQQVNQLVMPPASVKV
Assay: S1P transporter assay: S1P release from whole cells expressing SPNS2
Assay type: cell-based
Conditions: HeLa or U937 cells expressing mouse SPNS2; 18 hours; S1P in media measured by LC-MS; read-out: IC50 (in vitro inhibition against SPNS2)
Protocol: Transporter assays are vectorial and therefore require measurement of the transported analyte in different compartments. The S1P transporter SPNS2 only exports S1P, which obviates measuring uptake of S1P into transporter-expressing cells. Thus, transporter activity was determined by quantifying S1P release from whole cells expressing SPNS2. SPNS2 inhibitor potency was assessed using whole cell assays. HeLa or U937 cells expressing mouse SPNS2 were used to determine inhibitor potency (IC50). Cells were plated onto 12 well plates and assayed when the cell monolayers became confluent. Cell growth media (RPMI-1640 containing 10% fetal bovine serum) was replaced with 2 mL of serum-free media (RPMI-1640) containing fatty acid free bovine serum albumin (BSA) (0.2% w/v) and supplemented with 4-deoxypyridoxine (DOP) (1 mM), NaF (2 mM), Na3VO4 (0.2 mM) to inhibit S1P degradation. Test articles (1×10-9-1×10^-4 M) were assayed in duplicate or triplicate. After 18 hours, media was collected, an internal recovery standard (0.005 mL of 5×10^-7 M deuterated (d7) S1P in methanol) was added, the BSA was precipitated with trichloroacetic acid and the bound S1P extracted with methanol. S1P and S1P-d7 were measured by liquid chromatography mass spectrometry. Inhibitor potency at the human SPNS2 ortholog was determined by an analogous assay using U-937 cells, which endogenously express human SPNS2.

Row | SMILES | IC50 [nM]
1 | CCCCCCCCCCc1ccc(-c2noc(CNC(=O)C3CCCCCN3)n2)cc1 (stereo not drawn) [Compound 9u, N-((3-(4-decylphenyl)-1,2,4-oxadiazol-5-yl)methyl)azepane-2-carboxamide hydrochloride] | ≤ 2000
2 | CCCCCCCCCCc1ccc(-c2noc(CNC(=O)[C@@H]3C[C@H](O)CN3)n2)cc1 [Compound 9v, (2S,4S)—N-((3-(4-decylphenyl)-1,2,4-oxadiazol-5-yl)methyl)-4-hydroxypyrrolidine-2-carboxamide hydrochloride] | > 2000
3 | CCCCCCCCCCc1ccc(-c2noc(CNC(=O)[C@@H]3C[C@@H](O)CN3)n2)cc1 [Compound 9w, (2S,4R)—N-((3-(4-decylphenyl)-1,2,4-oxadiazol-5-yl)methyl)-4-hydroxypyrrolidine-2-carboxamide hydrochloride] | > 2000
4 | CCCCCCCCCCc1ccc(-c2noc(CNC(=O)[C@H]3CCNC3)n2)cc1 [Compound 9x, (S)—N-((3-(4-decylphenyl)-1,2,4-oxadiazol-5-yl)methyl)pyrrolidine-3-carboxamide hydrochloride] | > 2000
5 | CCCCCCCCCCc1ccc(-c2noc(CNC(=O)C[C@@H](O)CN)n2)cc1 [Compound 9y, (R)-4-amino-N-((3-(4-decylphenyl)-1,2,4-oxadiazol-5-yl)methyl)-3-hydroxybutanamide hydrochloride] | > 2000
6 | CCCCCCCCCCc1ccc(-c2noc(CNC(=O)[C@@H]3CCN3)n2)cc1 [Compound 9z, (S)—N-((3-(4-decylphenyl)-1,2,4-oxadiazol-5-yl)methyl)azetidine-2-carboxamide 2,2,2-trifluoroacetate] | ≤ 2000
7 | CCCCNC(=O)c1ccc(-c2noc([C@@H]3CCNC3)n2)cc1 [Compound 13a, (R)—N-butyl-4-(5-(pyrrolidin-3-yl)-1,2,4-oxadiazol-3-yl)benzamide hydrochloride] | > 2000
8 | CCCCNC(=O)c1ccc(-c2noc(CCCN)n2)cc1 [Compound 13b, 4-(5-(3-aminopropyl)-1,2,4-oxadiazol-3-yl)-N-butylbenzamide hydrochloride] | > 2000
9 | CCCCCCCCNC(=O)c1ccc(-c2noc([C@@H]3CCNC3)n2)cc1 [Compound 13c, (R)—N-octyl-4-(5-(pyrrolidin-3-yl)-1,2,4-oxadiazol-3-yl)benzamide hydrochloride] | > 2000
10 | CCCCCCCCNC(=O)c1ccc(-c2noc(CCCN)n2)cc1 [Compound 13d, 4-(5-(3-aminopropyl)-1,2,4-oxadiazol-3-yl)-N-octylbenzamide hydrochloride] | > 2000
11 | CCCCCCCCCCc1ccc(-c2noc([C@H](CCCCN)NC(C)=O)n2)cc1 [Compound 21, (S)—N-(5-amino-1-(3-(4-decylphenyl)-1,2,4-oxadiazol-5-yl)pentyl)acetamide hydrochloride] | > 2000
12 | C/C(=N\OCCCCc1ccccc1)c1ccc(-c2noc(CCCN)n2)cc1 [Compound 28, 1-(4-(5-(3-aminopropyl)-1,2,4-oxadiazol-3-yl)phenyl)ethan-1-one 0-(4-phenylbutyl) oxime hydrochloride] | > 2000

Second part, the compound after the results:

Row | IC50 [nM] | SMILES
13 | ≤ 2000 | CCCCCCCCCCc1ccc(-c2noc(C(=O)NCCN)n2)cc1 [Compound 16a, N-(2-aminoethyl)-3-(4-decylphenyl)-1,2,4-oxadiazole-5-carboxamide hydrochloride]
14 | > 2000 | CCCCCCCCCCc1ccc(-c2noc(C(=O)NCCCN)n2)cc1 [Compound 16b, N-(3-aminopropyl)-3-(4-decylphenyl)-1,2,4-oxadiazole-5-carboxamide hydrochloride]
15 | ≤ 2000 | CCCCCCCCCCc1ccc(-c2noc([C@@H](N)CCCCN)n2)cc1 [Compound 19a, (S)-1-(3-(4-decylphenyl)-1,2,4-oxadiazol-5-yl)pentane-1,5-diamine hydrochloride]
16 | > 2000 | CCCCCCCCCCc1ccc(-c2noc([C@@H](N)CCCN)n2)cc1 [Compound 19b, (S)-1-(3-(4-decylphenyl)-1,2,4-oxadiazol-5-yl)butane-1,4-diamine dihydrochloride]
17 | ≤ 2000 | CCCCCCCCCCc1ccc(-c2noc([C@@H](N)CCN)n2)cc1 [Compound 19c, (S)-1-(3-(4-decylphenyl)-1,2,4-oxadiazol-5-yl)propane-1,3-diamine dihydrochloride]
18 | > 2000 | CCCCCCCCCCc1ccc(-c2noc([C@H](N)CCCCN)n2)cc1 [Compound 19d, (R)-1-(3-(4-decylphenyl)-1,2,4-oxadiazol-5-yl)pentane-1,5-diamine dihydrochloride]
